Measured values taken from paper doi:10.1101/2022.01.13.476167v2 (biorxiv, 2022).

Test system: aPGA (Achromobacter spp. penicillin G acylase)
Settings: 0.05 M phosphate buffer, pH 8.0, 35 °C

| SMILES | Km |
| --- | --- |
| CCCCCCCC(=O)N[C@H]1CCOC1=O [C08-HSL] | 870 ± 10 µM |
| CCCCCC(=O)N[C@H]1CCOC1=O [C06-HSL] | 620 ± 100 µM |
